US5428059A, “Benzopyran derivatives and an anti-allergic agent possessing the same as the active ingredient” (Dainippon Ink & Chemicals, Inc., priority 1991, dated 1995)

Test system: Hartley-type male guinea pigs
Test: Guinea Pig Homogeneous Skin Passive Anaphylaxis Assay (PCA reaction)
Type: in vivo, guinea pig (Hartley-type)
Details: Cavia porcellus, 10 mg/kg oral, 48 h after sensitization, read-out: Allergic reaction inhibitory index (%)
How it was run: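 Male Hartley guinea pigs (250~300 g) given intradermal back injections of 120-fold-diluted anti-OVA serum; 48 h later test substance dosed orally at 10 mg/kg, then challenged i.v. with OVA plus Evans Blue. Dye-spot area (long × short diameter, mm^2) measured at 30 min; inhibition % calculated against solvent control.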

In order of falling inhibition in vivo at 10 mg/kg:
1. COc1cccc2oc(=O)c(O)c(O)c12 [Compound 195, 3,4-(dihydroxy)-5-(methoxy)-2H-1-benzopyran-2-one]  55%
2. COc1cccc2oc(=O)c(OC(=O)c3ccccc3)c(O)c12 [Compound 194, 3-(benzoyloxy)-4-hydroxy-5-(methoxy)-2H-1-benzopyran-2-one]  46%
3. COc1cccc2oc(=O)c(OC/C=C(\C)CCC=C(C)C)c(O)c12 [Compound 203, 3-(geranyloxy)-4-hydroxy-5-(methoxy)-2H-1-benzopyran-2-one]  41%
4. COc1cccc2oc(=O)c(OC(C)C)c(O)c12 [Compound 198, 3-(isopropoxy)-4-hydroxy-5-(methoxy)-2H-1-benzopyran-2-one]  40%
5. CC(C)=CCC/C(C)=C/COc1c(OC(C)C)c(=O)oc2cccc(O)c12 [Compound 192, 3-(isopropoxy)-4-(geranyloxy)-5-hydroxy-2H-1-benzopyran-2-one]  37%
6. COc1cccc2oc(=O)c(O)c(OC(C)=O)c12 [Compound 196, 3-hydroxy-4-(acetoxy)-5-(methoxy)-2H-1-benzopyran-2-one]  33%
7. COc1cccc2oc(=O)c(OC/C=C(\C)CCC=C(C)C)c(OC(C)C)c12 [Compound 207, 3-(geranyloxy)-4-(isopropoxy)-5-(methoxy)-2H-1-benzopyran-2-one]  33%
8. COc1cccc2oc(=O)c(OC(C)=O)c(OC(=O)c3ccccc3)c12 [Compound 197, 3-(acetoxy)-4-(benzoyloxy)-5-(methoxy)-2H-1-benzopyran-2-one]  32%
9. CCCCCCCCCCOc1c(O)c(=O)oc2cccc(OC)c12 [Compound 199, 3-hydroxy-4-(decyloxy)-5-(methoxy)-2H-1-benzopyran-2-one]  32%
10. COc1cccc2oc(=O)c(OC(C)=O)c(OC/C=C(\C)CCC=C(C)C)c12 [Compound 206, 3-(acetoxy)-4-(geranyloxy)-5-(methoxy)-2H-1-benzopyran-2-one]  32%
11. CC(C)=CCC/C(C)=C/COc1c(OC(=O)c2ccccc2)c(=O)oc2cccc(O)c12 [Compound 190, 3-(benzoyloxy)-4-(geranyloxy)-5-hydroxy-2H-1-benzopyran-2-one]  31%
12. COc1cccc2oc(=O)c(OC(C)=O)c(OC)c12 [Compound 201, 3-(acetoxy)-4,5-(dimethoxy)-2H-1-benzopyran-2-one]  31%
13. COc1cccc2oc(=O)c(OC/C=C(\C)CCC=C(C)C)c(OC(=O)c3ccccc3)c12 [Compound 205, 3-(geranyloxy)-4-(benzoyloxy)-5-(methoxy)-2H-1-benzopyran-2-one]  31%
14. CC(=O)Oc1c(OC/C=C(\C)CCC=C(C)C)c(=O)oc2cccc(O)c12 [Compound 189, 3-(geranyloxy)-4-(acetoxy)-5-hydroxy-2H-1-benzopyran-2-one]  30%
15. COc1c(OC/C=C(\C)CCC=C(C)C)c(=O)oc2cccc(O)c12 [Compound 191, 3-(geranyloxy)-4-(methoxy)-5-hydroxy-2H-1-benzopyran-2-one]  30%
16. CC(C)=CCC/C(C)=C/COc1c(OC/C=C(\C)CCC=C(C)C)c2c(O)cccc2oc1=O [Compound 193, 3,4-(digeranyloxy)-5-hydroxy-2H-1-benzopyran-2-one]  30%
17. COc1c(OC(C)C)c2c(OC)cccc2oc1=O [Compound 200, 3,5-(dimethoxy)-4-(isopropoxy)-2H-1-benzopyran-2-one]  30%
18. CCCCCCCCCCOc1c(OC(=O)c2ccccc2)c2c(OC)cccc2oc1=O [Compound 202, 3-(decyloxy)-4-(benzoyloxy)-5-(methoxy)-2H-1-benzopyran-2-one]  30%
19. COc1cccc2oc(=O)c(O)c(OC/C=C(\C)CCC=C(C)C)c12 [Compound 204, 3-hydroxy-4-(geranyloxy)-5-(methoxy)-2H-1-benzopyran-2-one]  30%
